Reference: patent publication US4576957A, “N-(Substituted phenyl)-N'-[(1H-imidazol-1-yl) and (1H-1,2,4-triazol-1-yl)alkyl]ureas” (American Cyanamid Company, priority 1984, dated 1986)

Legend:
[1] = target: T1, thromboxane synthetase enzyme (Rattus norvegicus, UniProt P49430); test: Thromboxane Synthetase Enzyme Inhibition (TXB2 formation by washed SHR platelets, RIA); type: cell-based, Okamoto-Aoki spontaneously hypertensive rats (SHR); details: 10 min; Dose 10^-4 (unit inferred); SHR platelet suspension, 10 minutes at 37° C.
T1 construct: The platelets were isolated by centrifuging the PRP for 10 minutes at 1060xg; endogenous in cells; host or cells: washed platelets from arterial blood of Okamoto-Aoki spontaneously hypertensive rats (Taconic Farms, Germantown, NY)
T1 sequence (P49430 1-533): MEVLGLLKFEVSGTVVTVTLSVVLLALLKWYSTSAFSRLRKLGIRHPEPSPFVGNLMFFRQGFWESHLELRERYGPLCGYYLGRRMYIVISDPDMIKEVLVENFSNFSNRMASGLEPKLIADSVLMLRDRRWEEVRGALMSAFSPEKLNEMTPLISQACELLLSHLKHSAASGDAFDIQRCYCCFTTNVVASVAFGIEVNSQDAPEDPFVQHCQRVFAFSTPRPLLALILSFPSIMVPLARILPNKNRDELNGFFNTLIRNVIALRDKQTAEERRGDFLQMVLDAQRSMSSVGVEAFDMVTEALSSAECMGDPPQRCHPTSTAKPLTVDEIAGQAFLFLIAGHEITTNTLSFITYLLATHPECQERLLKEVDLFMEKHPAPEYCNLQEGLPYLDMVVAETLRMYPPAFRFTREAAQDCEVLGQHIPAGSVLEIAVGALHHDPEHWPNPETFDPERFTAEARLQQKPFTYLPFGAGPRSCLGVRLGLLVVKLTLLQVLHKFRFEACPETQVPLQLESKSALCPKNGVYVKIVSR
Protocol: Under urethan anesthesia, […] of arterial blood was collected in one ml. of 3.2% sodium citrate in a polystyrene tube from Okamoto-Aoki spontaneously hypertensive rats (SHR) (Taconic Farms, Germantown, NY) between 19 and 24 weeks in age. The blood was diluted with 3 ml. cold saline and centrifuged at room temperature for 15 minutes at 460xg. The platelet rich plasma (PRP) was separated. The platelets were isolated by centrifuging the PRP for 10 minutes at 1060xg and were washed in 4 ml. of cold oxygenated Krebs phosphate buffer, pH 7.4. The chilled platelets recovered from centrifuging at 800xg for 10 minutes were resuspended in oxygenated Krebs phosphate buffer and diluted to contain 4.5-6.0×10^4 platelets/μl.
The inhibition of thromboxane (TX) formation was studied by determining the concentration of thromboxane B2 (TXB2), the stable hydrolysis product of TXA2. Assay samples, prepared on ice, contained 200 μl platelet suspension, 50 μl saline and 50 μl saline and 50 μl vehicle or drug under study. The samples were incubated for 10 minutes at 37° C. in a metabolic shaker. The reaction was terminated by immersing the tubes in an ice bath and adding 50 μl of 0.5M citric acid. The samples were centrifuged for 10 minutes in a refrigerated centrifuge and the supernatants thus obtained were decanted and stored at -20° C. The TXB2 content for each sample was determined by a direct radioimmunoassay (RIA) utilizing a TXB2 specific RIA kit purchased from New England Nuclear, Boston, MA and expressed as pg TXB2 formed minute^-1 sample^-1, from which the percent inhibition of TXB2 formation was calculated.

[2] = tested on: spontaneously hypertensive rats; test: Hypotensive Activity in Spontaneously Hypertensive Rats; type: in vivo; details: gavage, 100 mg./kg. or less, two doses 24 hours apart; measured 28 hours after initial dose; initial average 170±1.5 mm
Protocol: The novel compounds of the present invention are active hypotensive agents and were tested for hypotensive activity by the method of P. S. Chan and D. Poorvin, Clinical and Experimental Hypertension, 1 (6), 817-830 (1979). Male, 16 week old, spontaneously hypertensive rats of the Okamoto strain, from Taconic Farms, Germantown, N.Y., having an average mean arterial blood pressure of 170±1.5 mm of mercury are used in the test. One to 3 rats are used per test compound. A rat is dosed by gavage with a test compound, suspended in 2% pre-boiled starch at a concentration of 50 mg./ml., at a dose of 100 mg./kg. of body weight or less, with 0.9% sodium chloride loading at a dose of 25 ml./kg. of body weight. A second identical dose of the test compound, without sodium chloride loading is given 24 hours later. At 28 hours after the initial dose the mean arterial blood pressure is measured by the method of Chan and Poorvin vide supra. The procedure is repeated in a second and third rat when necessary.

[3] = tested on: ischemic myocardium in canines; details: cited from earlier work
[4] = tested on: coronary arteries of guinea pigs; details: cited from earlier work
[5] = tested on: coronary arteries of rabbits; details: cited from earlier work

Structure (SMILES)	inhibition at 100 µM [1] [%]	Average MABP [2] [mm Hg]	also measured
O=C(NCCCCCn1ccnc1)Nc1ccc(Cl)cc1	92	153	
O=C(NCCCCn1ccnc1)Nc1ccccc1Cl [N-(2-Chlorophenyl)-N'-[4-(-1H-imidazol-1-yl)butyl]urea]		97	
O=C(NCCCn1cncn1)Nc1ccc(Cl)cc1 [N-(4-Chlorophenyl)-N'-[3-(1H-1,2,4 triazol-1-yl)propyl]urea]	93	145	
O=C(NCCCn1ccnc1)Nc1ccc(Cl)cc1 [N-(4-Chlorophenyl)-N'-[3-(1H-imidazol-1-yl)propyl]urea]	92	122	
O=C(NCCCn1cncn1)Nc1ccccc1Br [N--(2-bromophenyl)-N'--[3-(1H--1,2,4-triazol-1-yl)propyl]-urea]	85	130	
O=C(NCCCn1ccnc1)Nc1ccccc1Br [N--(2-bromophenyl)-N'--[3-(1H--imidazole-1-yl)propyl]-urea]	95	113	
O=C(NCCCCn1ccnc1)Nc1ccccc1Br [N--(2-bromophenyl)-N'--[4-(1H--imidazol-1-yl)-butyl]-urea]		98	
O=C(NCCCn1cncn1)Nc1ccccc1Cl [N--(2-chlorophenyl)-N'--[3-(1H--1,2,4-triazol-1-yl)propyl]-urea]	86	142	
O=C(NCCCn1ccnc1)Nc1ccccc1Cl [N--(2-chlorophenyl)-N'--[3-(1H--imidazole-1-yl)propyl]-urea]	94	123	
O=C(NCCCn1cncn1)Nc1ccccc1F [N--(2-fluorophenyl)-N'--[3-(1H--1,2,4-triazol-1-yl)propyl]-urea]	70	149	
O=C(NCCCn1ccnc1)Nc1ccccc1F [N--(2-fluorophenyl)-N'--[3-(1H--imidazole-1-yl)propyl]-urea]	99	135	
O=C(NCCCn1cncn1)Nc1ccc(Cl)c(Cl)c1 [N--(3,4-dichlorophenyl)-N'--[3-(1H--1,2,4-triazol-1-yl)-propyl]urea]		155	
O=C(NCCCn1ccnc1)Nc1ccc(Cl)c(Cl)c1 [N--(3,4-dichlorophenyl)-N'--[3-(1H--imidazole-1-yl)propyl]-urea]	95	146	
O=C(NCCCn1ccnc1)Nc1cccc(Cl)c1 [N--(3-chlorophenyl)-N'--[3-(1H--imidazole-1-yl)propyl]-urea]	100	124	
O=C(NCCCn1cncn1)Nc1cccc(Cl)c1 [N--(3-chlorophenyl)-N--[3-(1H--1,2,4-triazol-1-yl)propy]-urea]	99	149	
O=C(NCCCn1cncn1)Nc1ccc(Br)cc1 [N--(4-bromophenyl)-N'--[3-(1H--1,2,4-triazol-1-yl)propyl]urea]	86		

Structure (SMILES)	inhibition at 100 µM [1] [%]	Average MABP [2] [mm Hg]	also measured
O=C(NCCCn1ccnc1)Nc1ccc(Br)cc1 [N--(4-bromophenyl)-N'--[3-(1H--imidazole-1-yl)propyl]-urea]	95	145	
O=C(NCCCn1ccnc1-c1ccccc1)Nc1ccc(Cl)cc1 [N--(4-chlorophenyl)-N'--[3-(2-phenyl-1H--imidazol-1-yl)-propyl]urea]	86		
Cc1cn(CCCNC(=O)Nc2ccc(Cl)cc2)cn1 [N--(4-chlorophenyl)-N'--[3-(4-methyl-1H--imidazol-1-yl)-propyl]urea]	92	138	
O=C(NCCCCn1ccnc1)Nc1ccc(Cl)cc1 [N--(4-chlorophenyl)-N'--[4-(1H--imidazol-1-yl)butyl]urea]	95	131	
Cc1cn(CCCCNC(=O)Nc2ccc(Cl)cc2)cn1 [N--(4-chlorophenyl)-N'--[4-(4-methyl-1H--imidazol-1-yl)-butyl]urea]	100		
O=C(NCCCn1cncn1)Nc1ccc(F)cc1 [N--(4-fluorophenyl)-N'--[3-(1H--1,2,4-triazol-1-yl)propyl]urea]	97		
O=C(NCCCn1ccnc1)Nc1ccc(F)cc1 [N--(4-fluorophenyl)-N'--[3-(1H--imidazol-l-yl)propyl]-urea]	100	134	
COc1ccc(NC(=O)NCCCn2cncn2)cc1 [N--(4-methoxyphenyl)-N'--[3-(1H--1,2,4-triazol-1-yl)-propyl]urea]	71		
COc1ccc(NC(=O)NCCCn2ccnc2)cc1 [N--[3-(1H--imidazol-1-yl)propyl]-N'--(4-methoxyphenyl)urea]	94		
O=C(NCCCn1ccnc1)Nc1ccccc1 [N--[3-(1H--imidazol-1-yl)propyl]-N'--phenylurea]	97	141	
Cc1ccc(NC(=O)NCCCn2ccnc2)cc1 [N--[3-(1H--imidazole-1-yl)-propyl]-N'--(4-methylphenyl)-urea]	98		
O=C(NCCCn1cncn1)Nc1ccccc1 [N--phenyl-N'--[3-(1H--1,2,4-triazol-1-yl)propyl]urea]		151	
O=C(NCCCn1cncn1)Nc1cccc(C(F)(F)F)c1 [N-[3-(1H-1,2,4-triazol-1-yl)propyl]-N'-[3-(trifluoromethyl)phenyl]urea]	99	143	
O=C(NCCCn1ccnc1)Nc1cccc(C(F)(F)F)c1 [N-[3-(1H-Imidazol-1-yl)propyl]-N'-[3-(trifluoromethyl)phenyl]urea]	100		
CCCCC[C@H](O)/C=C/[C@@H]1[C@H]2C/C(=C/CCCC(=O)O)O[C@H]2C[C@H]1O [PGI2, Prostacyclin]			effect on ischemic myocardium [3]: beneficial effects
CCCCC[C@H](O)/C=C/[C@H]1O[C@H]2C[C@H](O2)[C@@H]1C/C=C\CCCC(=O)O [TXA2, thromboxane A2]			effect of injection into coronary arteries [4]: causes myocardial ischemia and subendocardial necrosis; effect of injection into coronary arteries [5]: causes myocardial ischemia and subendocardial necrosis
